Consider 18 molecules from ChEMBL document CHEMBL1201862, “PubChem BioAssay data set” (2004).

Active and inactive are the calls of the source. Rule as the data show it, for most assays here: actives have a measured EC50 and inactives only a lower limit. Bounds are passed on as bounds.

The target in assay [1] is T1, Heat shock factor protein 1 (Mus musculus, UniProt P38532).
T1 sequence (P38532 whole entry): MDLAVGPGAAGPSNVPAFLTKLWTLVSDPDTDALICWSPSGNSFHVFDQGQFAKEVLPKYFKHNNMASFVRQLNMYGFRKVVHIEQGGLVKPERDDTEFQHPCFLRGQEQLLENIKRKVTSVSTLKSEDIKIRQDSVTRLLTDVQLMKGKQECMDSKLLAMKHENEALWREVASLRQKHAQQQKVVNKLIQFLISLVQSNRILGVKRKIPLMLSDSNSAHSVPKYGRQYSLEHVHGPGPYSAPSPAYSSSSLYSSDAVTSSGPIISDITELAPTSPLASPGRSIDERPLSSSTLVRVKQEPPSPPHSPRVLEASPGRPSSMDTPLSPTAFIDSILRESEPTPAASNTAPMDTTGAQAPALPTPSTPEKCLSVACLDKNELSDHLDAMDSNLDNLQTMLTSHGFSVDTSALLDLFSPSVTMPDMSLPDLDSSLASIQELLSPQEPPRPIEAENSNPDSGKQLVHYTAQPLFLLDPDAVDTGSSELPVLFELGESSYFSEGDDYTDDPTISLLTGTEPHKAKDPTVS
Kind of assay: enhancement of HSF1-driven luciferase signal – cell-based, NIH3T3, luminescence, dose retest, confirmation (AID 435004).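 Also: stress induced by proteasome inhibitor MG132 added 30 min after compound; luciferase reporter driven by HSF1 response element in NIH3T3 cells; actives raise luminescence as potentiators of the MG132 stress response.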 Type of assay: functional.

The target of assay [2] is T2, Calpain-2 catalytic subunit (Sus scrofa, UniProt P43367).
T2 sequence (P43367 whole entry): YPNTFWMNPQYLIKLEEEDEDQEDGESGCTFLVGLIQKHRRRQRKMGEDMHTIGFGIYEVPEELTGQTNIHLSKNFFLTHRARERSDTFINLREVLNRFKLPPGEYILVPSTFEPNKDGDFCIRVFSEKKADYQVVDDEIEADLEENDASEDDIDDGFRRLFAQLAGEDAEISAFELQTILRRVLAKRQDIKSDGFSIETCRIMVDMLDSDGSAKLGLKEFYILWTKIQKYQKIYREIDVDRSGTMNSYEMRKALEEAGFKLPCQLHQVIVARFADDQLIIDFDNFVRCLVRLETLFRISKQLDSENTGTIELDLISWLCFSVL
The experiment in a line: m-calpain protease blockers, concentration series – biochemical, fluorogenic peptide substrate, dose response (AID 1420). In kind it is functional.

Assay [3] is described as follows: cells. In kind it is functional.
Assay [4] is described as follows: Trypanosoma cruzi growth suppression in host cells – NIH3T3 host cells, beta-gal luminescence, confirmation (AID 2044).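 Also: intracellular parasites grown in NIH/3T3 mouse fibroblasts as host cells; luminescent beta-galactosidase reporter signal from transgenic T. cruzi replicating inside host cells; inhibitors lower the luminescence signal.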 In kind it is functional, cell-based.
Assay [5] in a line: NIH3T3 cell viability loss – ATP luminescence, mouse fibroblasts, counter-screen, dose response (AID 2010).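 Also: cells exposed to compound for about 90 hours before reading.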 Type of assay: functional, cell-based. Background: The purpose of a counterscreen is to sort out artefacts and off-target activity.
Assay [6] in a line: Luminescence Cell-Based Dose Response HTS to Identify Activators of Luciferase Translation or Activity in H4 […] Cells. [Related pubchem assays: 1829 (Project Summary), 1814 (Primary HTS)]. In kind it is functional.
Assay [7] relates to H4. Kind of assay: Luminescence Cell-Based Dose Response HTS to Identify Activators of 5'UTR Stem-Loop Driven Prion Protein mRNA Translation in H4 Neuroglioblastoma Cells. [Related pubchem assays: 1829 (Project Summary), 1814 (Primary HTS)]. Type of assay: functional. Particulars: Homo sapiens.
The target of assay [8] is T3, Replicative DNA helicase DnaB (Mycobacterium tuberculosis, UniProt P9WMR3).
T3 sequence (P9WMR3 whole entry): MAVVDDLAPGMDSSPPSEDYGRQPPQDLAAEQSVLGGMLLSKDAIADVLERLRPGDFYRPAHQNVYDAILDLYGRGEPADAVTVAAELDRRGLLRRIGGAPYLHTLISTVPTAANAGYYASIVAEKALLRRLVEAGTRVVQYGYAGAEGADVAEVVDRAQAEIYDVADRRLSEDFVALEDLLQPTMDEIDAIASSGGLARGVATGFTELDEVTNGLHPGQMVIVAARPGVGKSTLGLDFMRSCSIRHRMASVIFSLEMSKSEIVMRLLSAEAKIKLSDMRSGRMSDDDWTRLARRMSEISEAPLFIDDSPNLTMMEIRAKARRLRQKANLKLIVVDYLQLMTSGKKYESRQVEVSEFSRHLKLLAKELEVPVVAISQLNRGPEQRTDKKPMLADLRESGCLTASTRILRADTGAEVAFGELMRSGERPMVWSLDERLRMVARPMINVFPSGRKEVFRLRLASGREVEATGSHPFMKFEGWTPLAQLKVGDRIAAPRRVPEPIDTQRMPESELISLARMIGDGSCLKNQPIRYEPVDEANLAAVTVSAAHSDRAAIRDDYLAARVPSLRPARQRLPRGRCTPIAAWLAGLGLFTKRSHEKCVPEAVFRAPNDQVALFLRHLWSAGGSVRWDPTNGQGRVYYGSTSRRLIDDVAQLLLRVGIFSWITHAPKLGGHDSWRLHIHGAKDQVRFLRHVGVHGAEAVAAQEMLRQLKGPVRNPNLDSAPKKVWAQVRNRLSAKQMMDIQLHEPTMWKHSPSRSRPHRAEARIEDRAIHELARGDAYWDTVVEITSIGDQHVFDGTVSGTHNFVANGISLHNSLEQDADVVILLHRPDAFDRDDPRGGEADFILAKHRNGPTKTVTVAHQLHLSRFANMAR
Kind of assay: DnaB intein splicing inhibitors, dose response, biochemical, cell-free fluorescence (AID 449749). In kind it is functional.

The target of assay [9] is T4, Protein RecA (Mycobacterium tuberculosis, UniProt P9WHJ3).
T4 sequence (P9WHJ3 whole entry): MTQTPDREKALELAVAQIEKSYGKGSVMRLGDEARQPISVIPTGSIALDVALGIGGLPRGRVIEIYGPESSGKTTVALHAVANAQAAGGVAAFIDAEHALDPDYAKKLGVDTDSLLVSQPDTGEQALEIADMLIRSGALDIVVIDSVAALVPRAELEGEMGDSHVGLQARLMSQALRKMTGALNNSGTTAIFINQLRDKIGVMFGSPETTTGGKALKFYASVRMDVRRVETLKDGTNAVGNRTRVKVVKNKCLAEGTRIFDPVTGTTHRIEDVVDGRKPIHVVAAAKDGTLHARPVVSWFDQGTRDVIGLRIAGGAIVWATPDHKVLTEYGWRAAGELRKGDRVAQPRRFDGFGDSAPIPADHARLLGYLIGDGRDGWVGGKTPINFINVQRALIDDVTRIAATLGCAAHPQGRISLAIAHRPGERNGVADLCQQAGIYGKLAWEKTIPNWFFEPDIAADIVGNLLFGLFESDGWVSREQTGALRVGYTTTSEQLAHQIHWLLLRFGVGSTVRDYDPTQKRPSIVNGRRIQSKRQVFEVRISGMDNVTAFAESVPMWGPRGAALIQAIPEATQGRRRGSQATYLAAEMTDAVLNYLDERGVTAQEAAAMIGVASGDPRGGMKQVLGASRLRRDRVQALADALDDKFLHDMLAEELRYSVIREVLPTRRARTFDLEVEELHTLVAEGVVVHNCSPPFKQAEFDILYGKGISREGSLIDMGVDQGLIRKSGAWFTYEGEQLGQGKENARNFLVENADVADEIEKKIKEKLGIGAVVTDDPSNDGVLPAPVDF
The experiment in a line: Fluorescence Cell-Free Homogeneous Dose Retest to Identify Inhibitors of RecA-Intein Splicing Activity. [Related pubchem assays (depositor defined):AID2097, AID2223, AID489010, AID492950]. In kind it is functional.

The target in assay [10] is T5, Rac GTPase-activating protein 1 (Homo sapiens, UniProt Q9H0H5).
T5 sequence (Q9H0H5 whole entry): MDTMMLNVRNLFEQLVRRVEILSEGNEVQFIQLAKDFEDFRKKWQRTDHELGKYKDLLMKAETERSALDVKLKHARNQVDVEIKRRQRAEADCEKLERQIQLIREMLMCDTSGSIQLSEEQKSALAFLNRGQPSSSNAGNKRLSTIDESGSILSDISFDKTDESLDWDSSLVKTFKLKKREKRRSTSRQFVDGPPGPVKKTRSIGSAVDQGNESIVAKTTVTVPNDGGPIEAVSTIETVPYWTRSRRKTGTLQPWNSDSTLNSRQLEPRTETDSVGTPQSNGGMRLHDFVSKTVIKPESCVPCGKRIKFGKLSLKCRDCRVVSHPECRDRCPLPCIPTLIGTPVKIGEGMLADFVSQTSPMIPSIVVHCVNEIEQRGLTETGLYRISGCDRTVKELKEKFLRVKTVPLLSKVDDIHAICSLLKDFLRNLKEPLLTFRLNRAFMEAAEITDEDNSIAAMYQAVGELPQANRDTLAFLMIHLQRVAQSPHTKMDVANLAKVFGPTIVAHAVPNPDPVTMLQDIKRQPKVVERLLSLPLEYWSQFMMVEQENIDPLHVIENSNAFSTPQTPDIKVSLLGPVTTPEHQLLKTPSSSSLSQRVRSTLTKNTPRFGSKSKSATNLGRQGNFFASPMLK
Kind of assay: blockers of MgcRacGAP-driven Rac1 GTP hydrolysis – biochemical, ADP Hunter fluorescence, primary and confirmatory, confirmation (AID 624330). In kind it is functional.

For assay [11], the system named is Streptococcus sp. 'group A'. The experiment in a line: Streptococcus pyogenes SK(-)GAS viability under kanamycin – luminescence, BacTiterGlo, confirmation, counter-screen for streptokinase expression inhibitor project, dose response (AID 1900). In kind it is functional, organism-based.
Assay [12] deals with T6, Streptokinase A (Streptococcus pyogenes serotype M1, UniProt P10520).
T6 sequence (P10520 whole entry): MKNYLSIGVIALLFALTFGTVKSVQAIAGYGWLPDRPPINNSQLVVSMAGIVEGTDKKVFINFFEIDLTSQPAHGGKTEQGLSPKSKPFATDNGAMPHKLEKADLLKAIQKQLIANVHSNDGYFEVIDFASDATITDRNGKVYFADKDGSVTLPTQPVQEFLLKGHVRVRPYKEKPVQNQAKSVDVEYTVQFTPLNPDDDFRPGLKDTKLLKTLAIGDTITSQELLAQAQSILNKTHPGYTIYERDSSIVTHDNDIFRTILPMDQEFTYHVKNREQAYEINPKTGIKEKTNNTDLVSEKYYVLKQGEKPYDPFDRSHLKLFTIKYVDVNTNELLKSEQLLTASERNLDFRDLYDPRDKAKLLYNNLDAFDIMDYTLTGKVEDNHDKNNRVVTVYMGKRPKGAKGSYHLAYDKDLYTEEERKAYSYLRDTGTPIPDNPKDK
The experiment in a line: viability-normalized secreted streptokinase activity reduction – plasminogen activation absorbance, OD405, dose response (AID 1914).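 Also: secreted streptokinase activity via plasminogen activation per viability signal from cell pellet.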 In kind it is functional, Streptococcus pyogenes M1 GAS.

Assay [13] deals with Streptococcus. The experiment in a line: GAS UMAA2166 growth inhibition – luminescence, BacTiterGlo, counter-screen for streptokinase expression inhibitor project, dose response (AID 1915).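 Also: potency for reduction of bacterial viability or growth.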 In kind it is functional, organism-based.
A short description of assay [14]: Luminescence Cell-Based Dose Retest to Confirm Inhibitors of Cancer Stem Cells. [Related pubchem assays (depositor defined):AID2717, AID2721]. Type of assay: functional. Particulars: Homo sapiens.

As to `COc1ccc(/C=C/C(=O)NCCCc2ccccc2)cc1`, the EC50 in [1] is > 260 µM (inactive).

`O=c1c(-c2ccc3c(c2)OCCO3)coc2cc(O)cc(O)c12`: the EC50 in assay [1] is 19.2 µM (active).

Consider `CCOc1ccc(NC(=S)NC(=O)/C=C/c2ccc(OC)cc2)c([N+](=O)[O-])c1`, for which the IC50 in [2] is 17.2 µM (not active).

Consider `CCOC(=O)Cn1c(C)c(Br)c(=O)c2cccc(C)c21`, for which the half-maximal inhibitory concentration (IC50) in assay [3] is 11.2 µM (active).

As to `Cn1nnc(NC(=O)COc2ccc(C3CCCCC3)cc2)n1`, the half-maximal inhibitory concentration (IC50) in [3] was 23.3 µM (active).

`O=c1[nH]c2ccccc2n1CCC1CCCCC1`: the EC50 in [1] is > 260 µM (inactive).

As to `Cc1cc(N(C)C)c(C#N)c(NCc2ccccc2)n1`, the EC50 in assay [1] is > 260 µM (inactive).

In the case of `Cc1cc(Cl)ccc1C(=O)C1CCCN(C(=O)c2cnsn2)C1` (stereo not drawn), in [1], the EC50 was > 260 µM (inactive).

As to `O=C(CCSc1ccccn1)c1ccccc1`, in [3], the IC50 was 23.2 µM (active).

On to `CC(C)N(Cc1nc(-c2ccc(Cl)cc2)no1)C(=O)CN(C)S(=O)(=O)c1ccc(Cl)cc1`, for which the concentration giving a half-maximal response (EC50) is 2.71 µM (active) in assay [4], > 60 µM (not active) in assay [5] and > 260 µM (inactive) in assay [1].

With `O=Cc1ccc(-n2nncc2-c2ccc([N+](=O)[O-])cc2)cc1`, the concentration for half-maximal inhibition (IC50) in [2] is 12.6 µM (not active).

Turning to `COc1cc(/C=C2\C(=O)N(CCC#N)N=C2C)ccc1OCC(=O)Nc1ccccc1`, the 50% effective concentration (EC50) in assay [6] was < 0.1 µM (active); in [7], 64.8 µM (active); in assay [9] it was 2.79 µM (active). For the same molecule, the AC50 in assay [8] was 3.74 µM (active). The IC50 in assay [10] is 144 µM (active).

Turning to `C=CCn1c(SCC(=O)NC2CCCC2)nc2scc(-c3ccco3)c2c1=O`, in [1], the EC50 is > 260 µM (inactive).

Turning to `Cc1nc2ccc(Br)cc2c(=O)n1Cc1cccs1`, in assay [1], the EC50 was > 260 µM (inactive).

Turning to `Cc1nc2scc(-c3ccc(Cl)cc3)c2c(=O)n1N`, the EC50 in assay [1] is > 260 µM (inactive).

Turning to `Cc1cccc(N=C(S)N(CCN(C)C)C(C)c2cccnc2)c1` (stereo not drawn), in [1], the EC50 is > 260 µM (inactive).

For `O=C(Nc1ccc(Cl)c(Cl)c1)O/N=C/c1ccncc1`, the 50% effective concentration (EC50) in [11] is 1.75 µM (active); in assay [12] it was > 150 µM (not active); in [13], 36.5 µM (active). For the same molecule, in [14], the AC50 is 5.98 µM (active). In addition, the concentration for half-maximal inhibition (IC50) in [3] is 9.54 µM (active).

Take `CO/C(O)=C1\C(C)=NC(=S)NC1c1ccc(-c2cccc(Cl)c2)o1` (stereo not drawn): the EC50 in assay [1] was > 260 µM (inactive).

The EC50 is the concentration at which the effect is half-maximal. The IC50 is the midpoint of a concentration-inhibition curve. As a reminder, the AC50 is the concentration at which the activity in the assay is half-maximal.
